Measured values: US9145354B2, “Pharmaceutical compounds” (priority 2011, dated 2015)
Where two headings read alike, the source gives them in different places.

Key:
[1] = test system: HCV subgenomic replicon in Huh-7 cells; assay: Replicon Assay (Example B), luciferase readout EC50; type: cell-based; conditions: luciferase readout, upper value of the cell pair, read-out: Assay B EC50
Description: The activities of compounds of the invention against HCV in a cellular environment were analysed using a replicon assay as described below.
(§1) Thus, Huh-7 cells persistently infected with an HCV-RNA construct (Bartenschlager, R. Hepatitis C replicons: potential role for drug development. Nature Rev. Drug Discov. 1, 911-916 (2002)) comprising: 5′ and 3′ non-translated regions (NTR); the non-structural genes NS3 to NS5b; as well as the G418 drug resistance gene, neomycin, (for selection of cells carrying HCV replicon RNA) fused to the firefly Luciferase reporter gene (pFKI3889Iuc-ubi-neo/NS3-3′/ET) were used to determine the cell based antiviral activity of compounds using luciferase activity as an indirect readout of HCV RNA load. In this assay […] huh-7 cells persistently infected with the HCV subgenomic replicon construct above were plated/well in a 96 well tissue culture plate. The cells were allowed to attach overnight in DMEM medium supplemented with 10% FBS 1% NEAA, and 250 μg/ml gentamicin. The following day the medium was replaced with 200 μl/well of fresh medium as described above lacking gentamicin. Semilog dilutions of compounds in medium were then added to triplicate wells (non-edge) of the cultured cells to give a 0.1% DMSO final concentration. Plates were then incubated at 37° C. in an atmosphere of 5% CO2 and air for 72 h. […] The plate was then read at 535 nm (excitation) and 590 nm (emission) on a SpectraMax Gemini reader (Molecular Devices) to determine the number of viable cells by measuring the conversion of rezasurin (Alamar blue) to resorufin in response to mitochondrial activity. In order to determine the antiviral effect of these compounds EC50 values were determined by measuring the luciferase activity of the cells. Alamar blue solution was removed from the wells and replaced with 100 μl/well of medium along with 100 μl/well of Bright-Glo reagent and incubated at room temperature for 5 minutes before transferring 100 μl/well to a white bottom 96 well plate to read in a luminometer as described in the Bright-Glo Luciferase Assay System protocol (promega).

full length NS3/4a = full length NS3/4a (Hepatitis C virus genotype 1b (isolate BK) (HCV), UniProt P26663); assay: NS3 Protease Assay (Example A), FRET-based; type: biochemical
Outline: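 Full-length NS3/4a, made in-house, with an NS4A/B-derived peptide substrate carrying QXL520 quencher and 5-FAMsp fluorophore. Buffer 50 mM Tris pH8, 20 mM DTT, 1% CHAPS, 10% glycerol, 5% DMSO. Fluorescence followed 30 min at room temperature; IC50 from initial rates of replicate curves.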

[2] = Replicon Assay (Example B), Alamar Blue cytotoxicity CC50; type: cell-based; conditions: human, lower value of the cell pair
Source text: as §1

[3] = HCV NS3 protease assay, full length NS3/4a, read-out: Assay A IC50 (μM) average
[4] = read-out: IC50 against the protease activity of the full length NS3/4a
[5] = Hepatitis C virus, Huh-7, replicon assay
[6] = stated as IC50 less than 30 μM or at least 40% inhibition at a concentration of 100 μM, read-out: IC50 against the protease activity of the full length NS3/4a

full length NS3/4a, sequence (P26663 1027-1657): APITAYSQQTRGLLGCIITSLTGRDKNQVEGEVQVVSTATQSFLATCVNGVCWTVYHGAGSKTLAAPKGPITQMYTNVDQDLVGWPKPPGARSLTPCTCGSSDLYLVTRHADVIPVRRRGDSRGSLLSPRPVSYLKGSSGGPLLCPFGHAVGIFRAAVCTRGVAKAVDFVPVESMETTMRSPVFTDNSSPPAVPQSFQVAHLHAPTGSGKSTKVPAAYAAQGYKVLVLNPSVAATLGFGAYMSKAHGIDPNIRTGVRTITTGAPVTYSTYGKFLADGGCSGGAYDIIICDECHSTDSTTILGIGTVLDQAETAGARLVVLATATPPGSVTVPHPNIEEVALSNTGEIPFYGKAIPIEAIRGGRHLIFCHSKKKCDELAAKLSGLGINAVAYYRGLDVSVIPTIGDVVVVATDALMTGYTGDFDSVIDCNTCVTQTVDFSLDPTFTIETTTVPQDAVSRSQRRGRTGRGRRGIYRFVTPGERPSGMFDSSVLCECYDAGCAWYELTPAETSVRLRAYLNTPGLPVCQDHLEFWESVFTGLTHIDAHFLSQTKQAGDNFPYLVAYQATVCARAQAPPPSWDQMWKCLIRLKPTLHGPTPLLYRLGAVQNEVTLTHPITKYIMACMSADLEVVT

| Compound | IC50 (full length NS3/4a; [3]) | IC50 (full length NS3/4a; [4]) | EC50 [1, 5] | further results |
| --- | --- | --- | --- | --- |
| CCC(NC1CCCC1C(N)=O)c1ccc(Cl)c(C(=O)c2ccc(N)nc2)c1F (racemic) [Example 125, 2-{[1-{3-[(6-aminopyridin-3-yl)carbonyl]-4-chloro-2-fluorophenyl}propyl]amino} cyclopentane-1-carboxamide] | – | – | – | EC50 ([1]; replicon assay): 79 nM |
| CCC(NC1CCCC1C(N)=O)c1ccc(Cl)c(C(=O)c2ccc(N)nc2)c1F (racemic) [Example 127, 2-{[1-{3-[(6-aminopyridin-3-yl)carbonyl]-4-chloro-2-fluorophenyl}propyl]amino} cyclopentane-1-carboxamide] | – | – | – | EC50 ([1]; replicon assay): > 10000 nM |
| CCC(NC1CCCC1C(N)=O)c1ccc(Cl)c(C(=O)c2ccc(N)nc2)c1F (racemic) [Example 161, 2-{[1-{3-[(6-aminopyridin-3-yl)carbonyl]-4-chloro-2-fluorophenyl}propyl]amino} cyclopentane-1-carboxamide] | – | – | – | EC50 ([1]; replicon assay): > 10000 nM |
| CCC(NC1CCCC1C(N)=O)c1ccc(Cl)c(C(=O)c2ccc(N)nc2)c1F (single isomer, unassigned) [Example 125, 2-{[1-{3-[(6-aminopyridin-3-yl)carbonyl]-4-chloro-2-fluorophenyl}propyl]amino} cyclopentane-1-carboxamide] | 0.29 µM | < 1 µM | – | CC50 at 72 h [2]: > 3000 nM |
| CC[C@@H](N)c1ccc(Cl)c(C(=O)c2ccccc2)c1F [Example 4, (1R)-1-(3-benzoyl-4-chloro-2-fluorophenyl)propan-1-amine] | 0.089 µM | < 1 µM | > 10000 nM | CC50 at 72 h [2]: > 10000 nM |
| CC[C@@H](N)c1ccc(Cl)c(C(=O)c2ccc(C#N)cc2)c1F [Example 9, 4-({3-[(1R)-1-aminopropyl]-6-chloro-2-fluorophenyl}carbonyl)-benzonitrile] | 0.076 µM | < 1 µM | > 3000 nM | CC50 at 72 h [2]: > 3000 nM |
| N[C@@H](c1ccc(Cl)c(C(=O)c2ccccc2)c1F)C1CC1 [Example 11, (R)-(3-benzoyl-4-chloro-2-fluorophenyl)-(cyclopropyl)-methanamine] | 0.13 µM | < 1 µM | > 3000 nM | CC50 at 72 h [2]: > 3000 nM |
| CCOC(=O)c1cnn(-c2ccc(C(=O)c3c(Cl)ccc([C@H](N)CC)c3F)cn2)c1 [Example 41, ethyl 1-[5-({3-[(1R)-1-aminopropyl]-6-chloro-2-fluorophenyl}carbonyl)pyridin-2-yl]-1H-pyrazole-4-carboxylate] | 1.6 µM | 1 to 5 µM | 9 nM | – |
| COc1cc(C(=O)c2c(Cl)ccc([C@H](N)C3CC3)c2F)ccc1C#N [Example 69, 4-({3-[(R)-amino(cyclopropyl)methyl]-6-chloro-2-fluorophenyl}carbonyl)-2-methoxybenzonitrile] | 0.052 µM | – | 33 nM | CC50 at 72 h [2]: > 1000 nM |
| CC[C@@H](N)c1ccc(Cl)c(C(=O)c2ccc(N)c(C#N)c2)c1F [Example 72, 2-Amino-5-[3-((R)-1-amino-propyl)-6-chloro-2-fluoro-benzoyl]-benzonitrile] | – | – | 32 nM | – |
| CC[C@@H](N)c1ccc(Cl)c(C(=O)c2ccc(N)c(Cl)c2)c1F [Example 74, (4-Amino-3-chloro-phenyl)-[3-((R)-1-amino-propyl)-6-chloro-2-fluoro-phenyl]-methanone] | – | – | 32 nM | – |
| [2H]C([2H])([2H])C([2H])([2H])[C@@H](N[C@@H](C)CC(N)=O)c1ccc(Cl)c(C(=O)c2ccc(N)c(C)c2)c1F [Example 268, (3S)-3-{[(1R)-1-{3-[(4-amino-3-methylphenyl)carbonyl]-4-chloro-2-fluorophenyl}(2,2,3,3,3-deutero)propyl]amino}-butanamide] | 0.19 µM | < 1 µM | 16 nM | – |
| C[C@@H](CC(=O)NCCN)NCc1ccc(Cl)c(C(=O)c2ccccc2)c1F [Example 282, (3S)—N-(2-aminoethyl)-3-{[(3-benzoyl-4-chloro-2-fluorophenyl)methyl]-amino}butanamide] | – | – | 3200 nM | inhibition at 0.01 µM (full length NS3/4a; @ 0.01 uM): 65% |
| CC[C@H](NC(=O)C1CCNC1)c1ccc(Cl)c(C(=O)c2cccnc2)c1F (stereo partly drawn) [Example 295, N-[(1S)-1-{4-chloro-2-fluoro-3-[(pyridin-3-yl)carbonyl]phenyl}propyl] pyrrolidine-3-carboxamide] | – | – | – | inhibition at 3 µM (full length NS3/4a; @ 3 uM): 38% |
| CC[C@@H](NC1CC1)c1ccc(Cl)c(C(=O)c2cccnc2)c1F [Example 296, N-[(1R)-1-{4-chloro-2-fluoro-3-[(pyridin-3-yl)carbonyl]phenyl}-propyl]cyclopropanamine] | 13 µM | – | – | IC50 (full length NS3/4a; [6]): < 30 µM |
| CC[C@H](NC(=O)CCN)c1ccc(Cl)c(C(=O)c2cccnc2)c1F [Example 297, 3-amino-N-[(1S)-1-{4-chloro-2-fluoro-3-[(pyridin-3-yl)carbonyl]phenyl}propyl] propanamide] | 0.15 µM | < 1 µM | – | – |
| CC[C@H](NC(=O)C[C@@H](N)C(C)C)c1ccc(Cl)c(C(=O)c2cccnc2)c1F [Example 298, (3R)-3-amino-N-[(1S)-1-{4-chloro-2-fluoro-3-[(pyridin-3-yl)carbonyl]phenyl}propyl]-4-methylpentanamide] | 0.064 µM | < 1 µM | – | – |
| CC[C@@H](NCc1cn[nH]c1)c1ccc(Cl)c(C(=O)c2cccnc2)c1F [Example 299, [(1R)-1-{4-chloro-2-fluoro-3-[(pyridin-3-yl)carbonyl]phenyl}propyl] (1H-pyrazol-4-ylmethyl)amine] | – | – | – | inhibition at 10 µM (full length NS3/4a): 32% |
| CC[C@@H](N[C@H](C)c1cn[nH]c1)c1ccc(Cl)c(C(=O)c2cccnc2)c1F [Example 300, [(1R)-1-{4-chloro-2-fluoro-3-[(pyridin-3-yl)carbonyl]phenyl}propyl] [(1R)-1-(1H-pyrazol-4-yl)ethyl]amine] | – | – | – | inhibition at 30 µM (full length NS3/4a; @ 30 uM): 48%; IC50 (full length NS3/4a; [6]): < 30 µM |
| CC[C@@H](N[C@@H](C)c1cn[nH]c1)c1ccc(Cl)c(C(=O)c2cccnc2)c1F [Example 301, [(1R)-1-{4-chloro-2-fluoro-3-[(pyridin-3-yl)carbonyl]phenyl}propyl] [(1S)-1-(1H-pyrazol-4-yl)ethyl]amine] | – | – | – | inhibition at 10 µM (full length NS3/4a): 65%; IC50 (full length NS3/4a; [6]): < 30 µM |
| CC[C@H](NC(=N)N)c1ccc(Cl)c(C(=O)c2cccnc2)c1F [Example 302] | 1.3 µM | 1 to 5 µM | – | – |
| CC[C@H](NC(=O)CCN)c1ccc(Cl)c(C(=O)c2ccc(N)nc2)c1F [Example 303] | 0.065 µM | < 1 µM | – | – |
| CC[C@@H](N[C@H](C)c1cnc[nH]1)c1ccc(Cl)c(C(=O)c2cccnc2)c1F [Example 304, [(1R)-1-{4-chloro-2-fluoro-3-[(pyridin-3-yl)carbonyl]phenyl}propyl] [(1R)-1-(1H-imidazol-5-yl)ethyl]amine] | 4.7 µM | 1 to 5 µM | – | – |
| CC[C@@H](N[C@@H](C)c1cnc[nH]1)c1ccc(Cl)c(C(=O)c2cccnc2)c1F [Example 305, [(1R)-1-{4-chloro-2-fluoro-3-[(pyridin-3-yl)carbonyl]phenyl}propyl] [(1S)-1-(1H-imidazol-5-yl)ethyl]amine] | 1.1 µM | 1 to 5 µM | – | – |
| CC[C@@H](NCCn1cccn1)c1ccc(Cl)c(C(=O)c2cccnc2)c1F [Example 306, [(1R)-1-{4-chloro-2-fluoro-3-[(pyridin-3-yl)carbonyl]phenyl}propyl] [2-(1H-pyrazol-1-yl)ethyl] amine] | – | – | – | inhibition at 100 µM (full length NS3/4a; @ 100 uM): 59%; IC50 (full length NS3/4a; [6]): < 30 µM |
| CC[C@@H](NC)c1ccc(Cl)c(C(=O)c2ccc(N)nc2)c1F [Example 307, 5-({6-chloro-2-fluoro-3-[(1R)-1-(methylamino)propyl]-phenyl}carbonyl)pyridin-2-amine] | 0.34 µM | < 1 µM | – | – |
| (3S)-3-{[(1R)-1-{3-[(6- aminopyridazin-3- yl)carbonyl]-4-chloro-2- fluorophenyl}propyl]amino} butanamide [Example 232] | 0.99 µM | < 1 µM | – | – |
